Assays:
Format in all cases: cell-based
OCI-LY10 cells = assay: Inhibitory activity on OCI-LY10 cell proliferation (MTS); details: Homo sapiens, 72 h
Procedure: (§1) The anti-tumor efficacy of the compounds was tested by measuring their inhibitory effects on OCI-LY10 and Mino cell proliferation. OCI-LY10 and Mino cells were cultured in RPMI-1640 medium containing 10% fetal calf serum. OCI-LY10 and Mino cells were digested, inoculated in a 96-well plate at a cell concentration of 10000 cells/well, and incubated overnight at 37° C., 5% CO2. Compounds of different concentrations (1000 nM, 4-fold dilution, 8 points) were added to the 96-well plate and incubated for 72 h (LY10) or 168 h (Mino) at 37° C. and 5% CO2, and then 20 uL of MTS was added to each well. After incubation for 2 h, 25 μl of 10% SDS was added to each well to terminate the reaction. The absorbance at 490 nm and 650 nm were measured with a microplate reader. IC50 was calculated using GraphPad Prism 5.0.

BTK = biological target: T1, BTK (Homo sapiens, UniProt Q06187); assay: BTK degradation activity test in Mino cells; details: 16 h incubation, Western blot or Elisa
T1 construct: endogenous in cells; host or cells: Mino cells
T1 sequence (Q06187 whole entry): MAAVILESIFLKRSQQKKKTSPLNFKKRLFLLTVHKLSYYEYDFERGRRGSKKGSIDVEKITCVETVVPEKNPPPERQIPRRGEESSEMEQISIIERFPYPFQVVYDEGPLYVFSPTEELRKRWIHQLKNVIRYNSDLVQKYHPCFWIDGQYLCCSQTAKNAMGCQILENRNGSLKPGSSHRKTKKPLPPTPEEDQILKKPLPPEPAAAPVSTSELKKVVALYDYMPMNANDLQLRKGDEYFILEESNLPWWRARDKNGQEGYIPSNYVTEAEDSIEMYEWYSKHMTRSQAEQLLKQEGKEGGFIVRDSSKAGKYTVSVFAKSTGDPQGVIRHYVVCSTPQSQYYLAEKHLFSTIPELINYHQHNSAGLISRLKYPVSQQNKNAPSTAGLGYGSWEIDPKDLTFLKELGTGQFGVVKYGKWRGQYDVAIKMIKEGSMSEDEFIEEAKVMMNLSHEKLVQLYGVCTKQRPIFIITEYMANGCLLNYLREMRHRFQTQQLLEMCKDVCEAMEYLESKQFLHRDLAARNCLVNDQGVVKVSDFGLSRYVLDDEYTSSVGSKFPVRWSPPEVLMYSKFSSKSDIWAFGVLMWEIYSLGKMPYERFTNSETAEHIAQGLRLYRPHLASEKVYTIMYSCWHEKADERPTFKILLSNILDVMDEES
In short: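 DC50 derived by curve fitting of BTK degradation rates versus untreated control across compound concentrations. Mino cells were exposed for 16 h; BTK levels in lysates, normalised via BCA protein, measured by Western blot or ELISA.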

Mino cells = assay: Inhibitory activity on Mino cell proliferation (MTS); details: Homo sapiens, 168 h incubation
Procedure: as §1

| SMILES | IC50 (OCI-LY10 cells) [nM] | DC50 (BTK) [nM] | IC50 (Mino cells) [nM] |
| --- | --- | --- | --- |
| CN1CCN([C@@H]2CCCN(c3nnc(C(N)=O)c(Nc4ccc(C5CCN(CC6CCN(c7ccc(N8CCC(=O)NC8=O)cc7)CC6)CC5)c(F)c4)n3)C2)C1=O [Compound 234, (R)-5-((4-(1-((1-(4-(2,4-dioxotetrahydropyrimidin-1(2H)-yl)phenyl)piperidin-4-yl)methyl)piperidin-4-yl)-3-fluorophenyl)amino)-3-(3-(3-methyl-2-oxoimidazolidin-1-yl)piperidin-1-yl)-1,2,4-triazin-6-carboxamide] | 1.78 | < 1 | – |
| CN1CCN([C@@H]2CCCN(c3nnc(C(N)=O)c(Nc4ccc(N5CCN(CC6CCN(c7ccc8c9c(oc8c7)C(=O)N(C7CCC(=O)NC7=O)C9)CC6)CC5)c(F)c4)n3)C2)C1=O (stereo partly drawn) [Compound 223, 5-((4-(4-((1-(2-(2,6-dioxopiperidin-3-yl)-3-oxo-2,3-dihydro-H-benzofuro[2,3-c]pyrrol-6-yl)piperidin-4-yl)methyl)piperazin-1-yl)-3-fluorophenyl)amino)-3-((R)-3-(3-methyl-2-oxoimidazolidin-1-yl)piperidin-1-yl)-1,2,4-triazin-6-carboxamide] | 2.55 | < 1 | – |
| CC(C)c1cc(N2CCC(CN3CCN(c4ccc(Nc5nc(N6CCC[C@@H](N7CCN(C)C7=O)C6)nnc5C(N)=O)cc4F)CC3)CC2)ccc1N1CCC(=O)NC1=O [Compound 189, (R)-5-((4-(4-((1-(4-(2,4-dioxotetrahydropyrimidin-1(2H)-yl)-3-isopropylphenyl)piperidin-4-yl)methyl)piperazin-1-yl)-3-fluorophenyl)amino)-3-(3-(3-methyl-2-oxoimidazolidin-1-yl)piperidin-1-yl)-1,2,4-triazin-6-carboxamide] | – | < 1 | 5.45 |
| CN1CCN([C@@H]2CCCN(c3nnc(C(N)=O)c(Nc4ccc(N5CCN(C[C@@H]6CCN(c7ccc(N8CCC(=O)NC8=O)cc7)C6)CC5)c(F)c4)n3)C2)C1=O [Compound 152, 5-((4-(4-(((S)-1-(4-(2,4-dioxotetrahydropyrimidin-1(2H)-yl)phenyl)pyrrolidin-3-yl)methyl)piperazin-1-yl)-3-fluorophenyl)amino)-3-((R)-3-(3-methyl-2-oxoimidazolin-1-yl)piperidin-1-yl)-1,2,4-triazin-6-carboxamide] | – | < 1 | 2.8 |
| CN1CCN([C@@H]2CCCN(c3nnc(C(N)=O)c(Nc4ccc(N5CCN(CC6CCN(c7ccc(N8CCC(=O)NC8=O)cc7F)CC6)CC5)c(F)c4)n3)C2)C1=O [Compound 186, (R)-5-((4-(4-((1-(4-(2,4-dioxotetrahydropyrimidin-1(2H)-yl)-2-fluorophenyl)piperidin-4-yl)methyl)piperazin-1-yl)-3-fluorophenyl)amino)-3-(3-(3-methyl-2-oxoimidazolidin-1-yl)piperidin-1-yl)-1,2,4-triazin-6-carboxamide] | – | < 1 | 2.26 |
| CN1CCN([C@@H]2CCCN(c3nnc(C(N)=O)c(Nc4ccc(N5CCN(CC6CCN(c7ccc(N8CCC(=O)NC8=O)c(C(F)(F)F)c7)CC6)CC5)c(F)c4)n3)C2)C1=O [Compound 187, (R)-5-((4-(4-((1-(4-(2,4-dioxotetrahydropyrimidin-1(2H)-yl)-3-(trifluoromethyl)phenyl)piperidin-4-yl)methyl)piperazin-1-yl)-3-fluorophenyl)amino)-3-(3-(3-methyl-2-oxoimidazolidin-1-yl)piperidin-1-yl)-1,2,4-triazin-6-carboxamide] | – | < 1 | 2.07 |
| CN1CCN([C@@H]2CCCN(c3nnc(C(N)=O)c(Nc4ccc(N5CCN(CC#Cc6ccc7c(c6)n(C)c(=O)n7C6CCC(=O)NC6=O)CC5)c(F)c4)n3)C2)C1=O (stereo partly drawn) [Compound 227, 5-((4-(4-(3-(1-(2,6-dioxopiperidin-3-yl)-3-methyl-2-oxo-2,3-dihydro-1H-benzo[d]imidazol-5-yl)propan-2-yn-1-yl)piperazin-1-yl)-3-fluorophenyl)amino)-3-((R)-3-(3-methyl-2-oxoimidazolidin-1-yl)piperidin-1-yl)-1,2,4-triazin-6-carboxamide] | 0.27 | < 1 | – |
| CN1CCN([C@@H]2CCCN(c3nnc(C(N)=O)c(Nc4ccc(N5CCN(CC6CCN(c7ccc(C(=O)NC8CCC(=O)NC8=O)c8c7OCCO8)CC6)CC5)c(F)c4)n3)C2)C1=O (stereo partly drawn) [Compound 183, 5-((4-(4-((1-(8-((2,6-dioxopiperidin-3-yl)carbamoyl)-2,3-dihydrobenzo[b][1,4]dioxan-5-yl)piperidin-4-yl)methyl)piperazin-1-yl)-3-fluorophenyl)amino)-3-((R)-3-(3-methyl-2-oxoimidazolidin-1-yl)piperidin-1-yl)-1,2,4-triazin-6-carboxamide] | – | < 1 | 4.85 |
| CN1CCN([C@@H]2CCCN(c3nnc(C(N)=O)c(Nc4ccc(N5CCN(CC6CCN(c7ccc(N8CCC(=O)NC8=O)c(C(F)F)c7)CC6)CC5)c(F)c4)n3)C2)C1=O [Compound 188, (R)-5-((4-(4-((1-(3-(difluoromethyl)-4-(2,4-dioxotetrahydropyrimidin-1(2H)-yl)phenyl)piperidin-4-yl)methyl)piperazin-1-yl)-3-fluorophenyl)amino)-3-(3-(3-methyl-2-oxoimidazolidin-1-yl)piperidin-1-yl)-1,2,4-triazin-6-carboxamide] | – | < 1 | 5.55 |
| CN1CCN([C@@H]2CCCN(c3nnc(C(N)=O)c(Nc4ccc(N5CCN(CC6CCN(c7ccc(NC8CCC(=O)NC8=O)c8ocnc78)CC6)CC5)c(F)c4)n3)C2)C1=O (stereo partly drawn) [Compound 210, 5-((4-(4-((1-(7-((2,6-dioxopiperidin-3-yl)amino)benzo[d]oxazol-4-yl)piperidin-4-yl)methyl)piperazin-1-yl)-3-fluorophenyl)amino)-3-((R)3-(3-methyl-2-oxoimidazolidin-1-yl)piperidin-1-yl)-1,2,4-triazin-6-carboxamide] | – | < 1 | 2.33 |
| CN1CCN([C@@H]2CCCN(c3nnc(C(N)=O)c(Nc4ccc(N5CCN(CC6CCN(c7ccc8c(c7)n(C)c(=O)n8C7CCC(=O)NC7=O)CC6)CC5)c(F)c4)n3)C2)C1=O (stereo partly drawn) [Compound 219, 5-((4-(4-((1-(1-(2,6-dioxopiperidin-3-yl)-3-methyl-2-oxo-2,3-dihydro-H-benzo[d]imidazol-5-yl)piperidin-4-yl)methyl)piperazin-1-yl)-3-fluorophenyl)amino)-3-((R)-3-(3-methyl-2-oxoimidazolidin-1-yl)piperidin-1-yl)-1,2,4-triazin-6-carboxamide] | – | < 1 | 2.74 |
| CN1CCN([C@@H]2CCCN(c3nnc(C(N)=O)c(Nc4ccc(N5CCN(CC6CCN(c7ccc(NC8CCC(=O)NC8=O)c8c7OCO8)CC6)CC5)c(F)c4)n3)C2)C1=O (stereo partly drawn) [Compound 209, 5-((4-(4-((1-(7-((2,6-dioxopiperidin-3-yl)amino)benzo[d][1,3]dioxacyclopent-4-yl)piperidin-4-yl)methyl)piperazin-1-yl)-3-fluorophenyl)amino)-3-((R)-3-(3-methyl-2-oxoimidazolidin-1-yl)piperidin-1-yl)-1,2,4-triazin-6-carboxamide] | – | < 1 | 3.42 |

From patent US20240360146A1, “BRUTON'S TYROSINE KINASE AND MUTANT DEGRADER, COMPOSITION AND APPLICATION THEREOF” (HANGZHOU HEALZEN THERAPEUTICS CO., LTD., priority 2021, published 2024)
